Experiments:
E. coli 2G-7 = assay: MIC by doubling dilution, colistin sulfate-resistant E. coli 2G-7; conditions: for In vitro minimum inhibitory concentration (MIC) of the substance alone: E. coli 2G-7, colistin sulfate-resistant, derivatives as hydrochlorides; for In vitro MIC of colistin sulfate in the presence of the substituted benzylideneguanidine derivative: E. coli 2G-7, resistant, culture comprised 20.0 ppm of the derivative (hydrochloride)
weanling piglets = assay: Synergy of derivatives and colistin sulfate in the feed for weanling piglets; type: in vivo, Duroc×Landrace×Large crossbred lean weanling piglets; conditions: creep feed with 20 ppm colistin sulfate and 150 ppm derivative (hydrochloride), ten days
Procedure: 90 28-day-aged Duroc×Landrace×Large crossbred lean weanling piglets similar in weight were divided into 9 groups, 10 piglets in each group. For each group, colistin sulfate and/or various substituted benzylideneguanidine derivatives were added into the antibiotic-free creep feed. The piglets were given ad libitum access to feed and water during the experiment. Weight gain, feed efficiency and diarrhea rate of each group within ten days were recorded.

E. coli 5F-1 = assay: MIC by doubling dilution, colistin sulfate-resistant E. coli 5F-1; conditions: for In vitro minimum inhibitory concentration (MIC) of the substance alone: E. coli 5F-1, colistin sulfate-resistant, derivatives as hydrochlorides; for In vitro MIC of colistin sulfate in the presence of the substituted benzylideneguanidine derivative: E. coli 5F-1, resistant, culture comprised 20.0 ppm of the derivative (hydrochloride)
E. coli 4D-6 = assay: MIC by doubling dilution, colistin sulfate-resistant E. coli 4D-6; conditions: for In vitro minimum inhibitory concentration (MIC) of the substance alone: E. coli 4D-6, colistin sulfate-resistant, derivatives as hydrochlorides; for In vitro MIC of colistin sulfate in the presence of the substituted benzylideneguanidine derivative: E. coli 4D-6, resistant, culture comprised 20.0 ppm of the derivative (hydrochloride)
E. coli 2S-19 = assay: MIC by doubling dilution, colistin sulfate-susceptible E. coli 2S-19; type: cell-based, Escherichia coli; conditions: for In vitro minimum inhibitory concentration (MIC) of the substance alone: E. coli 2S-19, colistin sulfate-susceptible, derivatives as hydrochlorides; for In vitro MIC of colistin sulfate in the presence of the substituted benzylideneguanidine derivative: E. coli 2S-19, culture comprised 20.0 ppm of the derivative (hydrochloride), colistin sulfate serially diluted
E. coli 5W-7 = assay: MIC by doubling dilution, colistin sulfate-susceptible E. coli 5W-7; type: cell-based, Escherichia coli; conditions: for In vitro minimum inhibitory concentration (MIC) of the substance alone: E. coli 5W-7, colistin sulfate-susceptible, derivatives as hydrochlorides; for In vitro MIC of colistin sulfate in the presence of the substituted benzylideneguanidine derivative: E. coli 5W-7, culture comprised 20.0 ppm of the derivative (hydrochloride), colistin sulfate serially diluted
E. coli 3H-4 = assay: MIC by doubling dilution, colistin sulfate-resistant E. coli 3H-4; conditions: for In vitro minimum inhibitory concentration (MIC) of the substance alone: E. coli 3H-4, colistin sulfate-resistant, derivatives as hydrochlorides; for In vitro MIC of colistin sulfate in the presence of the substituted benzylideneguanidine derivative: E. coli 3H-4, resistant, culture comprised 20.0 ppm of the derivative (hydrochloride)
E. coli 3Y-9 = assay: MIC by doubling dilution, colistin sulfate-susceptible E. coli 3Y-9; type: cell-based, Escherichia coli; conditions: for In vitro minimum inhibitory concentration (MIC) of the substance alone: E. coli 3Y-9, colistin sulfate-susceptible, derivatives as hydrochlorides; for In vitro MIC of colistin sulfate in the presence of the substituted benzylideneguanidine derivative: E. coli 3Y-9, culture comprised 20.0 ppm of the derivative (hydrochloride), colistin sulfate serially diluted
E. coli 3B-24 = assay: MIC by doubling dilution, colistin sulfate-susceptible E. coli 3B-24; type: cell-based, Escherichia coli; conditions: for In vitro minimum inhibitory concentration (MIC) of the substance alone: E. coli 3B-24, colistin sulfate-susceptible, derivatives as hydrochlorides; for In vitro MIC of colistin sulfate in the presence of the substituted benzylideneguanidine derivative: E. coli 3B-24, culture comprised 20.0 ppm of the derivative (hydrochloride), colistin sulfate serially diluted

| In vitro minimum inhibitory concentration (MIC) of the substance alone (E. coli 2G-7) | In vitro MIC of colistin sulfate in the presence of the substituted benzylideneguanidine derivative (E. coli 2G-7) | In vitro minimum inhibitory concentration (MIC) of the substance alone (E. coli 5F-1) | In vitro MIC of colistin sulfate in the presence of the substituted benzylideneguanidine derivative (E. coli 5F-1) | In vitro minimum inhibitory concentration (MIC) of the substance alone (E. coli 4D-6) | In vitro MIC of colistin sulfate in the presence of the substituted benzylideneguanidine derivative (E. coli 4D-6) | In vitro minimum inhibitory concentration (MIC) of the substance alone (E. coli 2S-19) | In vitro MIC of colistin sulfate in the presence of the substituted benzylideneguanidine derivative (E. coli 2S-19) | In vitro minimum inhibitory concentration (MIC) of the substance alone (E. coli 5W-7) | In vitro MIC of colistin sulfate in the presence of the substituted benzylideneguanidine derivative (E. coli 5W-7) | In vitro minimum inhibitory concentration (MIC) of the substance alone (E. coli 3H-4) | In vitro MIC of colistin sulfate in the presence of the substituted benzylideneguanidine derivative (E. coli 3H-4) | In vitro minimum inhibitory concentration (MIC) of the substance alone (E. coli 3Y-9) | In vitro MIC of colistin sulfate in the presence of the substituted benzylideneguanidine derivative (E. coli 3Y-9) | In vitro minimum inhibitory concentration (MIC) of the substance alone (E. coli 3B-24) | In vitro MIC of colistin sulfate in the presence of the substituted benzylideneguanidine derivative (E. coli 3B-24) | Compound | Average daily weight gain (weanling piglets) | Diarrhea rate (weanling piglets) | Feed conversion ratio (weanling piglets) |
| --- | --- | --- | --- | --- | --- | --- | --- | --- | --- | --- | --- | --- | --- | --- | --- | --- | --- | --- | --- |
| >800 ppm | 8 ppm | >800 ppm | 8 ppm | >800 ppm | 32 ppm | >800 ppm | 2.00 ppm | >800 ppm | 1.00 ppm | >800 ppm | 8 ppm | >800 ppm | 2.00 ppm | >800 ppm | 2.00 ppm | N=C(NN=Cc1ccc(OCc2ccccc2)cc1)NN=Cc1ccc(OCc2ccccc2)cc1 [Compound 7] | 240 g | 16% | 1.576 |
| >800 ppm | 4 ppm | >800 ppm | 8 ppm | >800 ppm | 16 ppm | >800 ppm | 1.00 ppm | >800 ppm | 0.50 ppm | >800 ppm | 4 ppm | >800 ppm | 1.00 ppm | >800 ppm | 1.00 ppm | N=C(N/N=C/c1ccc(Cl)cc1)N/N=C/c1ccc(Cl)cc1 [Compound 8] | 220 g | 33% | 1.608 |

Source: patent US11116735B2, “Use of substituted benzylideneguanidine derivatives as synergists for polymyxin antibiotics” (GUANGZHOU INSIGHTER BIOTECHNOLOGY CO., LTD., priority 2015, dated 2021)
